From US20240116856A1 (Young BioPharma, LLC, priority 2020, published 2024)
“And” between values parts separate entries of the source, which are not always exact repeats. Identical values can stand only once. Like-named read-outs stand apart in the source and are kept apart here.

Columns and labels:
human TRPA1 = target: T1, human TRPA1 (Homo sapiens, UniProt O75762); experiment: In vitro Ca2+ flux counter-screen in human TRPA1 overexpressing cells; assay type: cell-based
T1 construct: expressed in transfected cells; host or cells: overexpressing cells

MDA-MB-231 = experiment: Human cancer cell growth inhibition assay (ATP assay), MDA-MB-231; assay type: cell-based; conditions: Homo sapiens, MDA-MB-231, 96 h
MDA-MB-231 cell invasion = experiment: Cancer cell invasion assay, MDA-MB-231; assay type: cell-based, human; conditions: 24 h
Experimental: A cancer cell invasion assay was developed based on literature protocols (Methods 2005, 37, 208; EMBO J 2002, 21, 6289; Cellular Signalling 2012, 24, 1276.). Membrane matrix gel (Cat #A1413201, ThermoFisher) was diluted in ice-cold, serum-free RPMI 1640 Medium (Cat #31800022, ThermoFisher) at a concentration of 0.5-0.6 mg/mL. Then it was added to the upper compartment (100 μL per cup) of millicell inserts (Cat #PI8P01250, ThermoFisher) placed in a 24-well plate (Part no. 229123, Celltreat). The plate was incubated at 37° C. for 2 h to allow the liquid gel to solidify. RPMI 1640 Medium supplemented with 10% FBS (300 μL) was added to the well of the plate (lower compartment) as attractant, then DMSO or compounds were added. Human cancer cells (1×10^5 cells in 200 μL of RPMI 1640 Medium) were added to the upper compartment of the insert, then DMSO or compounds were added. After the plate was incubated at 37° C. for 24 h, the cells were fixed on the lower side of the insert membrane with 4% formaldehyde and stained with 1% crystal violet (Part no. IS12146, Innovating Science). The invaded cells on the lower side of the filter were counted under an inverted microscope equipped with either a 4× or a 10× objective (FIG. 11). The cell numbers from 5 random views were averaged and plotted as percentage against the DMSO control (FIG. 12A).

OVCAR-8 = experiment: Human cancer cell growth inhibition assay (ATP assay), OVCAR-8; assay type: cell-based; conditions: Homo sapiens, OVCAR-8, 96 h
human TRPV3 = target: T2, human TRPV3 (Homo sapiens, UniProt Q8NET8); experiment: In vitro Ca2+ flux counter-screen in human TRPV3 overexpressing cells; assay type: cell-based
T2 construct: expressed in transfected cells; host or cells: overexpressing cells
T2 sequence (Q8NET8 1-790): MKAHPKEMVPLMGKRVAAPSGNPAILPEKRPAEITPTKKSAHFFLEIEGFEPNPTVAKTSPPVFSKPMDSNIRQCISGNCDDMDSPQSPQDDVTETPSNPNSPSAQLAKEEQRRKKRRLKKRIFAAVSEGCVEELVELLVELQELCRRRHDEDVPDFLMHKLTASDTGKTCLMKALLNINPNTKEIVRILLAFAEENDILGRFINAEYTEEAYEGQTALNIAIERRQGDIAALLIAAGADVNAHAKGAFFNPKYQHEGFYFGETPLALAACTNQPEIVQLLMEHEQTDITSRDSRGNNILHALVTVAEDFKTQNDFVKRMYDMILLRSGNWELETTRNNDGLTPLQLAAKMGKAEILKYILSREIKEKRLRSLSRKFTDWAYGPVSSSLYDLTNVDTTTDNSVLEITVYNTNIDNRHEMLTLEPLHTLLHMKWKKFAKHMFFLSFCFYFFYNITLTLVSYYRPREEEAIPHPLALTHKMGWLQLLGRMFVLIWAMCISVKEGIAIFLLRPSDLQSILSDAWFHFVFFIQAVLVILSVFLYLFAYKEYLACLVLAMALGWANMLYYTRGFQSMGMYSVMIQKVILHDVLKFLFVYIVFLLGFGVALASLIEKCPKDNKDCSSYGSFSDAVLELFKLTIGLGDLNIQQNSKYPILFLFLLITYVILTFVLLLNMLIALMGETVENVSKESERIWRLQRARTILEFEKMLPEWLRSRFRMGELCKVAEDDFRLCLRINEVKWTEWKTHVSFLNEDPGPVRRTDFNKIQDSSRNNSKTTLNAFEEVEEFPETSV

NCI-H460 = experiment: Human cancer cell growth inhibition assay (ATP assay), NCI-H460; assay type: cell-based; conditions: Homo sapiens, NCI-H460, 96 h
human TRPV1 = target: T3, human TRPV1 (Homo sapiens, UniProt Q8NER1); experiment: In vitro Ca2+ flux assay in human TRPV1 transfected HEK 293 cells; assay type: cell-based; conditions: Means±SEM from three independent experiments
T3 construct: DYK (FLAG) tag from vector pcDNA3.1+/C-(K)DYK (C); host or cells: FreeStyle 293-F cells (HEK 293), transient transfection

[1] = counter-screen, read-out: TRPA1 EC50
[2] = 4 days, Means±SEM from three independent experiments, read-out: MDA-MB-231, IC50
[3] = 4 days, Means±SEM from three independent experiments, read-out: OVCAR-8, IC50
[4] = counter-screen, read-out: TRPV3 EC50
[5] = 4 days, Means±SEM from three independent experiments, read-out: NCl-H460, IC50

T3 sequence (Q8NER1 whole entry): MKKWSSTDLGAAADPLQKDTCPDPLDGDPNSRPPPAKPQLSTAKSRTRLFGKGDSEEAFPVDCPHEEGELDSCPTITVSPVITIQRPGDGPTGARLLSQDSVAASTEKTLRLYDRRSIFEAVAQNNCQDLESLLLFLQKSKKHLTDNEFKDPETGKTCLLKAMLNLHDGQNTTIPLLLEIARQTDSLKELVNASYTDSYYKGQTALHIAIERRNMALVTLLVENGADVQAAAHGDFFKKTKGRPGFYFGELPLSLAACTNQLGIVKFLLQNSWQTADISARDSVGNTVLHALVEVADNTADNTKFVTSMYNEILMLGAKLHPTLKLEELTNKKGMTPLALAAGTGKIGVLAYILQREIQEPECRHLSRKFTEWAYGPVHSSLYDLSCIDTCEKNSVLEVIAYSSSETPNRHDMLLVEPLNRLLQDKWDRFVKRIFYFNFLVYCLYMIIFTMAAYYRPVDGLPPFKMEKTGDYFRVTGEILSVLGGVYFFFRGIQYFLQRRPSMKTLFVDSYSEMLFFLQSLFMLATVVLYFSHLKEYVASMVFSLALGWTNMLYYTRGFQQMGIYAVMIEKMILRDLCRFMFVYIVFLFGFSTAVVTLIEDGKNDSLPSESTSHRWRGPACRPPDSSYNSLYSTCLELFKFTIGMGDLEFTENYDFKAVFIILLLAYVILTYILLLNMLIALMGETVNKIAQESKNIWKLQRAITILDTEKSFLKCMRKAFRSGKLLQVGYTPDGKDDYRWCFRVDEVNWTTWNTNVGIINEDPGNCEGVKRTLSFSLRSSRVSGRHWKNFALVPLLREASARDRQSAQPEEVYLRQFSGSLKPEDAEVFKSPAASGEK
T1 sequence (O75762 whole entry): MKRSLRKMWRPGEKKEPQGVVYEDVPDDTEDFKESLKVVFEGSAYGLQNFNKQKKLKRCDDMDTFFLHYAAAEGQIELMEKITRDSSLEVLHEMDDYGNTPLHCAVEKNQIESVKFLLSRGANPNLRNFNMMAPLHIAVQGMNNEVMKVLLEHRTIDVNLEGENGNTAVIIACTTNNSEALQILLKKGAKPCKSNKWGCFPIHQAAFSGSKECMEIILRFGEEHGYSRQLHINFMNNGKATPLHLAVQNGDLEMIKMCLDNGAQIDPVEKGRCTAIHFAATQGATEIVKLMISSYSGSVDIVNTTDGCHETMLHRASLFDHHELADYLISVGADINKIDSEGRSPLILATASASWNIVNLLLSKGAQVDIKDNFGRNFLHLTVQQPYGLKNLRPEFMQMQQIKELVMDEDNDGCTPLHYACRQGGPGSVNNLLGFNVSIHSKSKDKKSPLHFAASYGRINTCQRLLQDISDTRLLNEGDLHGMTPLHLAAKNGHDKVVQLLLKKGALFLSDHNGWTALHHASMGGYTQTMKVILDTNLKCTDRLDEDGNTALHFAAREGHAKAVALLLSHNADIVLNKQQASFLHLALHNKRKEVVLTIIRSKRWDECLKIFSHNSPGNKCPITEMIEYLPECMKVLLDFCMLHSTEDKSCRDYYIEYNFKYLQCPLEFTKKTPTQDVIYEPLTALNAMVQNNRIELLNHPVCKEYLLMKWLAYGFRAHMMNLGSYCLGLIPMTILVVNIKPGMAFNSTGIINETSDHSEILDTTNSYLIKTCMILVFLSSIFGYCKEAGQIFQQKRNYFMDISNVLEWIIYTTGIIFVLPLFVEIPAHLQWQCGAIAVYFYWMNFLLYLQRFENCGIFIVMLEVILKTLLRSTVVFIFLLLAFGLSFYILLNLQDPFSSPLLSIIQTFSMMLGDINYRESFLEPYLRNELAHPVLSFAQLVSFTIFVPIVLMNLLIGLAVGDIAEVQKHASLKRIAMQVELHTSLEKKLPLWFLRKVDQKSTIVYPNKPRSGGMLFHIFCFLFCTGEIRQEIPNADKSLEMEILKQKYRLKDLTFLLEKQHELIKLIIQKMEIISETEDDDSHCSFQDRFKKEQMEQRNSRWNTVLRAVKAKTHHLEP

Row | SMILES | EC50 (human TRPA1; [1]) | IC50 (MDA-MB-231; [2]) | inhibition of MDA-MB-231 cell invasion (MDA-MB-231 cell invasion) | IC50 (OVCAR-8; [3]) | EC50 (human TRPV3; [4]) | IC50 (NCI-H460; [5]) | EC50 (human TRPV1; read-out: TRPV1 EC50) | IC50 (MDA-MB-231; read-out: MDA-MB-231, IC50, μM) | IC50 (OVCAR-8; read-out: OVCAR-8, IC50, μM) | IC50 (NCI-H460; read-out: NCl-H460, IC50, μM) | EC50 (human TRPA1) | EC50 (human TRPV1; TRPV1 EC50 (μM)) | EC50 (human TRPV3)
1 | COc1cc(CC2=NCC(c3ccccc3)O2)ccc1O (centres unmarked) [YB-3] | > 10 µM | 430 ± 90 µM | dose-dependently inhibited | 500 ± 120 µM | > 10 µM | 320 ± 86 µM |  |  |  |  |  |  | 
2 | COc1cc(CC2=NCC(c3ccc(C(F)(F)F)cc3)O2)ccc1O (centres unmarked) [YB-4] | > 10 µM | 469 ± 130 µM | dose-dependently inhibited | 300 ± 60 µM | > 10 µM | 270 ± 45 µM |  |  |  |  |  |  | 
3 | COc1cc(CC2=NCC(c3ccc(-c4ccccc4)cc3)O2)ccc1O (centres unmarked) [YB-5] | > 10 µM | 542 ± 101 µM | dose-dependently inhibited | 150 ± 42 µM | > 10 µM | 210 ± 48 µM |  |  |  |  |  |  | 
4 | COc1cc(CNC(=O)CCCC/C=C/C(C)C)ccc1NS(C)(=O)=O [YB-6] | > 10 µM | 867 ± 72 µM | dose-dependently inhibited | 400 ± 51 µM | > 10 µM | 400 ± 46 µM |  |  |  |  |  |  | 
5 | COc1cc(CNC(=O)CCCC/C=C/C(C)C)ccc1N(S(C)(=O)=O)S(C)(=O)=O [YB-7] | > 10 µM | 386 ± 107 µM | dose-dependently inhibited | 310 ± 45 µM | > 10 µM | 200 ± 49 µM |  |  |  |  |  |  | 
6 | CNc1ccc(CNC(=O)CCCC/C=C/C(C)C)cc1OC [YB-8] | > 10 µM | 311 ± 31 µM | dose-dependently inhibited | 500 ± 81 µM | > 10 µM | 250 ± 23 µM |  |  |  |  |  |  | 
7 | COc1cc(CC(=O)N/C=C/c2ccc(Cl)cc2)ccc1O [YB-10] | > 10 µM | 115 ± 28 µM | dose-dependently inhibited | 34 µM | > 10 µM | 73 ± 18 µM | < 0.1 µM and 0.012 to 0.048 µM |  |  |  |  |  | 
8 | COc1cc(CC(=O)N/C=C/c2ccc(-c3ccccc3)cc2)ccc1O [YB-12] | > 10 µM | 136 ± 29 µM | dose-dependently inhibited | 129 ± 20 µM | > 10 µM | 61 ± 21 µM |  |  |  |  |  |  | 
9 | COCCOCCOCCC(=O)Nc1ccc(CNC(=O)CCCC/C=C/C(C)C)cc1OC [YB-13] | > 10 µM | 107 ± 7.5 µM | dose-dependently inhibited | 200 ± 16 µM | > 10 µM | 100 ± 11 µM |  |  |  |  |  |  | 
10 | COc1ccc(/C=C/NC(=O)Cc2ccc(O)c(OC)c2)cc1 [YB-14] | > 10 µM | 300 ± 46 µM |  | 500 ± 57 µM | > 10 µM | > 300 µM |  |  |  |  |  |  | 
11 | COc1cc(CC(=O)N/C=C/c2cccc(C(F)(F)F)c2)ccc1O [YB-15] | > 10 µM | 250 ± 38 µM |  | 101 ± 17 µM | > 10 µM | > 300 µM | < 0.1 µM and 0.012 to 0.048 µM |  |  |  |  |  | 
12 | COc1cc(CC(=O)N/C=C/c2ccc(C(F)(F)F)cc2)ccc1N [YB-17] | > 10 µM |  |  |  | > 10 µM |  | 0.34 to 1.1 µM | 140 ± 22 µM | 161 ± 26 µM | 139 ± 19 µM |  |  | 
13 | COc1cc(CC(=O)N/C=C/c2ccc(Cl)cc2)ccc1N [YB-18] | > 10 µM | 69 ± 16 µM |  | 200 ± 21 µM | > 10 µM | 133 ± 18 µM | 0.34 to 1.1 µM |  |  |  |  |  | 
14 | COc1cc(CC(=O)N/C=C/c2ccc(-c3ccccc3)cc2)ccc1N [YB-19] | > 10 µM | 103 ± 18 µM |  | 100 ± 15 µM | > 10 µM | 117 ± 16 µM |  |  |  |  |  |  | 
15 | COc1ccc(/C=C/NC(=O)Cc2ccc(N)c(OC)c2)cc1 [YB-20] | > 10 µM | 86 ± 14 µM |  | 283 ± 38 µM | > 10 µM | 279 ± 42 µM |  |  |  |  |  |  | 
16 | COc1cc(CC(=O)N/C=C/c2cccc(C(F)(F)F)c2)ccc1N [YB-21] | > 10 µM | 101 ± 20 µM | dose-dependently inhibited | 65 ± 14 µM | > 10 µM | 103 ± 13 µM | 0.34 to 1.1 µM |  |  |  |  |  | 
17 | COc1cc(CC(=O)N/C=C/c2ccc(C(F)(F)F)cc2)ccc1NC(=O)CCCC/C=C/C(C)C [YB-29] | > 10 µM |  |  |  | > 10 µM |  | > 10 µM |  |  |  |  |  | 
18 | COc1cc(CC(=O)N/C=C/c2ccc(C(F)(F)F)cc2)ccc1NC(C)=O [YB-30] | > 10 µM |  |  |  | > 10 µM |  | 8.8 ± 0.9 µM |  |  |  |  |  | 
19 | COc1cc(CC(=O)N/C=C/c2ccc(C(F)(F)F)cc2)ccc1OC(=O)N1CCCCC1CN(C)C(=O)OC(C)(C)C (centres unmarked) [YB-31] |  |  |  |  |  |  |  |  |  |  | > 10 µM | > 10 µM | > 10 µM
20 | CNCC1CCCCN1C(=O)Oc1ccc(CC(=O)N/C=C/c2ccc(C(F)(F)F)cc2)cc1OC (centres unmarked) [YB-35] |  |  |  |  |  |  |  |  |  |  | > 10 µM | 0.71 ± 0.14 µM | > 10 µM
